These results are taken from US6566389B1, “Therapeutic uses of melatonin” (Neurim Pharmaceuticals (1991) Ltd., priority 1999, dated 2003).

Experiment [1] has as its system patients with tardive dyskinesia on long-term neuroleptic treatment. The experiment can be described thus: Randomized, double blind, crossover trial of melatonin on tardive dyskinesia severity, Abnormal Involuntary Movements Scale (AIMS). The class given is in vivo, human. Here is the method: The effect of melatonin on tardive dyskinesis was determined on a trial population of 22 patients, of whom 6 were schizoaffective and 16 were paranoid schizophrenics. All patients, who had been receiving long-term neuroleptic treatment, were diagnosed according to DSM IV. They consisted of 11 men and 11 women, age 39±15 years, age range 17-61 years, of whom 19 completed the trial and are included in the results. In a randomized, double blind, crossover manner, subjects were given daily either 2×5 mg melatonin in a controlled-release formulation (Circadin™, Neurim Pharmaceuticals, Israel), two hours before bedtime, or a placebo of identical appearance, for a period of six weeks, with a four week placebo wash-out between two treatment periods. […] During the last week of each treatment period, TD severity was assessed using the Abnormal Involuntary Movements Scale (AIMS) and comparisons were made between placebo or melatonin treatments, and baseline.

In experiment [2] the test system is pinealectomized rats treated with haloperidol. The settings on record: 4 mg, i.p., within one hour; cited from earlier work.

Marks after values point to notes of the source that are not given here. Where only a bound is given, the exact number is not on record here.

Consider `COc1ccc2[nH]cc(CCNC(C)=O)c2c1` [melatonin], for which the “T-test (t21), AIMS sub-scale 5” value in experiment [1] (arms, hands, baseline/administration difference, placebo vs. melatonin) was −1.78. The “p of T-test, AIMS sub-scale 5” value in experiment [1] (arms, hands, placebo vs. melatonin) is reported as 0.09. Moreover, the “decrease, ie. improvement (AIMS), after administration” value in experiment [1] (change from baseline after melatonin, placebo −1±1.3) is recorded as −3±2.1. In addition, the “T-test (t21), AIMS sub-scale 1” value in experiment [1] (facial and oral movements, baseline/administration difference, placebo vs. melatonin) was −1. The “p of T-test, AIMS sub-scale 1” value in experiment [1] (facial and oral movements, placebo vs. melatonin) is 0.33. For the same compound, the “p (MANOVA) of decrease after melatonin compared with placebo” value in experiment [1] (highly significant) is less than 0.0001. Also, in experiment [1] (implication due to abnormal movements, baseline/administration difference, placebo vs. melatonin), the “T-test (t21), AIMS sub-scale 9” value was −1.14. The “p of T-test, AIMS sub-scale 9” value in experiment [1] (implication due to abnormal movements, placebo vs. melatonin) is recorded as 0.27. Besides, the “T-test (t21), AIMS sub-scale 3” value in experiment [1] (jaw, baseline/administration difference, placebo vs. melatonin) is −1.14. In experiment [1] (jaw, placebo vs. melatonin), the “p of T-test, AIMS sub-scale 3” value is recorded as 0.27. In experiment [1] (legs, knees, baseline/administration difference, placebo vs. melatonin), the “T-test (t21), AIMS sub-scale 6” value is given as −2.81. For the same compound, in experiment [1] (legs, knees, placebo vs. melatonin, significant outcome), the “p of T-test, AIMS sub-scale 6” value is listed as 0.01*. Further, the “T-test (t21), AIMS sub-scale 2” value in experiment [1] (lips and perioral area, baseline/administration difference, placebo vs. melatonin) is recorded as −3.92. Moreover, the “p of T-test, AIMS sub-scale 2” value in experiment [1] (lips and perioral area, placebo vs. melatonin, significant outcome) is recorded as <0.001*. In addition, the “T-test (t21), AIMS sub-scale 7” value in experiment [1] (neck, shoulder, baseline/administration difference, placebo vs. melatonin) is reported as −2.49. The “p of T-test, AIMS sub-scale 7” value in experiment [1] (neck, shoulder, placebo vs. melatonin, significant outcome) was 0.02*. In experiment [1] (patient's awareness, baseline/administration difference, placebo vs. melatonin), the “T-test (t21), AIMS sub-scale 10” value is on record as “delta = 0”. Further, the “T-test (t21), AIMS sub-scale 11” value in experiment [1] (problem with teeth, baseline/administration difference, placebo vs. melatonin) is on record as “delta = 0”. For the same compound, the “T-test (t21), AIMS sub-scale 8” value in experiment [1] (severity of abnormal movements, baseline/administration difference, placebo vs. melatonin) was −1.82. In addition, the “p of T-test, AIMS sub-scale 8” value in experiment [1] (severity of abnormal movements, placebo vs. melatonin) came out at 0.08. For the same compound, in experiment [1] (tongue, baseline/administration difference, placebo vs. melatonin), the “T-test (t21), AIMS sub-scale 4” value is given as −0.81. Besides, the “p of T-test, AIMS sub-scale 4” value in experiment [1] (tongue, placebo vs. melatonin) is recorded as 0.43. The “severity of movements after melatonin” value in experiment [2] is reported as “non-significant reduction of the severity of movements”.
